Experimental data published in patent publication US20240293559A1, “SHP2 inhibitor, pharmaceutical composition containing the same and application thereof” (BEIJING TIDE PHARMACEUTICAL CO., LTD., priority 2021, published 2024).

Each compound was assayed against T1, SHP2 (Homo sapiens, UniProt Q06124) (assay: SHP2 degradation in MV 411 cells by Western blot (median degradation concentration)). Conditions: 24 hours with compound, SHP-2 antibody Western blot, concentration of the median degradation from exposure gray scale.
T1 construct: endogenous in cells; host or cells: MV 411
T1 sequence (Q06124 1-593): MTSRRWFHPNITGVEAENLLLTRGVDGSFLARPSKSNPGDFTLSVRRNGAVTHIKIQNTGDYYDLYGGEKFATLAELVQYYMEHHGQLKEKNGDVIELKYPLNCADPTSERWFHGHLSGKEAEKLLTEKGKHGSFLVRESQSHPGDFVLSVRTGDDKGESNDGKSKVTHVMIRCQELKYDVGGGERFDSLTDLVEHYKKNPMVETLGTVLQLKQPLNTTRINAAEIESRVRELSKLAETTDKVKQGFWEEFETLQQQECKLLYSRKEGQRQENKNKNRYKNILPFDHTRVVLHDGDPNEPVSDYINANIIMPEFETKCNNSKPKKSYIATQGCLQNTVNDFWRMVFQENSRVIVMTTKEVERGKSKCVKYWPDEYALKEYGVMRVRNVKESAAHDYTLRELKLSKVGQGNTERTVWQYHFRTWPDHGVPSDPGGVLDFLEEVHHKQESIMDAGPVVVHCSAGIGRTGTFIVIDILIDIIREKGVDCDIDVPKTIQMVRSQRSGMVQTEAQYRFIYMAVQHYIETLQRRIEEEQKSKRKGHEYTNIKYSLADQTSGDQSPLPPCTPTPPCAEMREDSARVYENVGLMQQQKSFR
Type: cell-based
Description: Reagent: complete DMEM medium, Gibco products. Fetal bovine serum, manufactured byThermoFisher. Trypsin, manufactured byThermoFisher. The SHP-2 antibody is produced by CST. Cell line, MV 411, the blast cells of patients with bi-phenotypic B-myelomonocytic leukemia, was established by Rovera. Measuring method: took the cells growing in the logarithmic phase, collected and suspended the cells in DMEM containing 10% fetal calf serum, gently blowed and beated the cells into single cell suspension by using a pipette, and counted the living cells under a microscope. […] Then cultured for 24 hours. All cells were collected and washed with PBS, lysed with RIPA lysate and collected into a 1.7 ml tube. […] metal bath for 5 minutes to fully denature the protein. 100V constant voltage electrophoresis after Western condensation and loading, stopped when bromophenol blue band reached the end point. The cellulose acetate membrane is transferred by a wet method, 45 minutes at a constant flow of 300-500 mA, 5% BSA is used for blocking for 1-2 hours at room temperature. Primary antibody of 1:500-1:8000 were used for incubation at 25° C. for 40 minutes and then washed three times. Secondary antibody was used for incubation for 15-40 min at room temperature. The proteins were detected using ultrasensitive ECL luminophores such as […], using an X-Ray film automatic developing machine. The concentration of the median degradation was calculated by exposure gray scale.

Compound | DC50 [nM]
CCOc1cc2oc(-c3ccc(OCCOCCOCCOCCOc4cccc5c4C(=O)N(C4CCC(=O)NC4=O)C5=O)cc3Cl)cc(=O)c2cc1-c1cc(NS(=O)(=O)c2ccccc2)cc(C(N)=O)c1 (stereo not shown) [Compound 68] | > 250
CCOc1cc2oc(-c3ccc(NCCOCCOCCOCCOc4cccc5c4C(=O)N(C4CCC(=O)NC4=O)C5=O)cc3Cl)cc(=O)c2cc1-c1cccc(C(N)=O)c1 (stereo not shown) [Compound 16] | 250
CCOc1cc2oc(-c3ccc(OCCOCCOCCOCCOc4cccc5c4C(=O)N(C4CCC(=O)NC4=O)C5=O)cc3Cl)cc(=O)c2cc1-c1cc(C(N)=O)ccc1O (stereo not shown) [Compound 46] | 6
CCOc1cc2oc(-c3ccc(OCCOCCOCCOCCOc4cccc5c4C(=O)N(C4CCC(=O)NC4=O)C5=O)cc3Cl)cc(=O)c2cc1-c1cc(C(N)=O)cc(S(C)(=O)=O)c1 (stereo not shown) [Compound 79] | 500
CCOc1cc2oc(-c3ccc(OCCOCCOCCOCCOc4cccc5c4C(=O)N(C4CCC(=O)NC4=O)C5=O)cc3Cl)cc(=O)c2cc1-c1cc(NS(C)(=O)=O)cc(C(N)=O)c1 (stereo not shown) [Compound 66] | > 250
CCOc1cc2oc(-c3ccc(NCCOCCOCCOCCOc4cccc5c4C(=O)N(C4CCC(=O)NC4=O)C5=O)cc3Cl)cc(=O)c2cc1-c1cccc(C(C)=O)c1 (stereo not shown) [Compound 14] | 25
CCOc1cc2oc(-c3ccc(OCCOCCOCCOCCOc4cccc5c4C(=O)N(C4CCC(=O)NC4=O)C5=O)cc3Cl)cc(=O)c2cc1-c1cc(C(N)=O)cc(C(F)(F)F)c1 (stereo not shown) [Compound 44] | 750
CCOc1cc2oc(-c3ccc(OCCOCCOCCOCCOc4cccc5c4C(=O)N(C4CCC(=O)NC4=O)C5=O)cc3Cl)cc(=O)c2cc1-c1cc(C(N)=O)cc(-c2ccccn2)c1 (stereo not shown) [Compound 56] | > 1000
CCOc1cc2oc(-c3ccc(OCCOCCOCCOCCOc4cccc5c4C(=O)N(C4CCC(=O)NC4=O)C5=O)cc3Cl)cc(=O)c2cc1-c1ccc(S(=O)(=O)N2CCOCC2)cc1 (stereo not shown) [Compound 34] | 42
CCOc1cc2oc(-c3ccc(OCCOCCOCCOCCOc4cccc5c4C(=O)N(C4CCC(=O)NC4=O)C5=O)cc3Cl)cc(=O)c2cc1-c1cc(C(N)=O)cc(-c2c[nH]cn2)c1 (stereo not shown) [Compound 61] | > 250
CCOc1cc2oc(-c3ccc(NCCOCCOCCOCCOc4cccc5c4C(=O)N(C4CCC(=O)NC4=O)C5=O)cc3Cl)cc(=O)c2cc1COc1ccccc1C(N)=O (stereo not shown) [Compound 52] | > 250
CCOc1cc2oc(-c3ccc(OCCOCCOCCOCCOc4ccc5c(c4)C(=O)N(C4CCC(=O)NC4=O)C5=O)cc3Cl)cc(=O)c2cc1-c1cncc(C(C)=O)c1 (stereo not shown) [Compound 87] | 45
CCOc1cc2oc(-c3ccc(NCCOCCOCCOCCOc4ccc5c(c4)C(=O)N(C4CCC(=O)NC4=O)C5=O)cc3Cl)cc(=O)c2cc1-c1cccc(C(C)=O)c1 (stereo not shown) [Compound 36] | 20
CCOc1cc2oc(-c3ccc(OCCOCCOCCOCCOc4cccc5c4C(=O)N(C4CCC(=O)NC4=O)C5=O)cc3Cl)cc(=O)c2cc1-c1cccc(N)c1 (stereo not shown) [Compound 26] | 3500
CCOc1cc2oc(-c3ccc(OCCOCCOCCOCCOc4cccc5c4C(=O)N(C4CCC(=O)NC4=O)C5=O)cc3Cl)cc(=O)c2cc1-c1cc(C(N)=O)cc(N(C)C(C)=O)c1 (stereo not shown) [Compound 65] | > 250
CCOc1cc2oc(-c3ccc(OCCOCCOCCOCCOc4cccc5c4C(=O)N(C4CCC(=O)NC4=O)C5=O)cc3Cl)cc(=O)c2cc1-c1cc(C(N)=O)cc(C(=O)N(C)C)c1 (stereo not shown) [Compound 77] | > 250
CCOc1cc2oc(-c3ccc(NCCOCCOCCOCCOc4cccc5c4C(=O)N(C4CCC(=O)NC4=O)C5=O)cc3Cl)cc(=O)c2cc1-c1ccc(OC)cc1F (stereo not shown) [Compound 15] | 250
CCOc1cc2oc(-c3ccc(OCCOCCOCCOCCOc4cccc5c4C(=O)N(C4CCC(=O)NC4=O)C5=O)cc3Cl)cc(=O)c2cc1-c1cccc(C(=O)OC)c1F (stereo not shown) [Compound 27] | 2
CCOc1cc2oc(-c3ccc(OCCOCCOCCOCCOc4cccc5c4C(=O)N(C4CCC(=O)NC4=O)C5=O)cc3Cl)cc(=O)c2cc1-c1cc(N)cc(C(=O)OC)c1 (stereo not shown) [Compound 40] | 750
CCOc1cc2oc(-c3ccc(OCCOCCOCCOCCOc4cccc5c4C(=O)N(C4CCC(=O)NC4=O)C5=O)cc3Cl)cc(=O)c2cc1-c1cc(C(N)=O)cc(N(C)S(C)(=O)=O)c1 (stereo not shown) [Compound 67] | > 250
CCOc1cc2oc(-c3ccc(OCCOCCOCCOCCOc4cccc5c4C(=O)N(C4CCC(=O)NC4=O)C5=O)cc3Cl)cc(=O)c2cc1-c1cc(NC(=O)Nc2ccccc2)cc(C(N)=O)c1 (stereo not shown) [Compound 71] | > 250
CCOc1cc2oc(-c3ccc(OCCOCCOCCOCCOc4cccc5c4C(=O)N(C4CCC(=O)NC4=O)C5=O)cc3Cl)cc(=O)c2cc1-c1ccc2c(c1)COC2=O (stereo not shown) [Compound 31] | 300
